{"source": "patent US7208509B2", "about": "“Non-nucleoside reverse transcriptase inhibitors” (Roche Palo Alto LLC, priority 2003, dated 2007)", "target": "HIV-1 RT (Human immunodeficiency virus type 1 group M subtype B, UniProt P03366)", "test": "HIV Reverse Transcriptase Assay: Inhibitor IC50 Determination", "assay_type": "biochemical", "conditions": "purified recombinant enzyme, poly(rA)/oligo(dT)16 template-primer, [3H] dTTP, 37° C. for 30 min; read-out: RT inhibition IC50", "method": "HIV Reverse Transcriptase Assay: Inhibitor IC50 Determination\nHIV-1 RT assay was carried out in 96-well Millipore MultiScreen MADVNOB50 plates using purified recombinant enzyme and a poly(rA)/oligo(dT)16 template-primer in a total volume of 50 μL. The assay constituents were 50 mM Tris/HCl, 50 mM NaCl, 1 mM EDTA, 6 mM MgCl2, 5 μM dTTP, 0.15 μCi [^3H] dTTP, 5 μg/ml poly (rA) pre annealed to 2.5 μg/ml oligo (dT)16 and a range of inhibitor concentrations in a final concentration of 10% DMSO. Reactions were initiated by adding 4 nM HIV-1 RT and after incubation at 37° C. for 30 min, they were stopped by the addition of 50 μl ice cold 20% TCA and allowed to precipitate at 4° C. for 30 min. The precipitates were collected by applying vacuum to the plate and sequentially washing with 3×200 μl of 10% TCA and 2×200 μl 70% ethanol. Finally, the plates were dried and radioactivity counted in a Packard TopCounter after the addition of 25 μl scintillation fluid per well. IC50's were calculated by plotting % inhibition versus log10 inhibitor concentrations.", "note": "pIC50: −log10 of the molar value.", "data": [{"compound": "CCn1c(Cc2ccc(Cl)c(Oc3cccc(Cl)c3)c2)n[nH]c1=O", "note": "[Compound 9, 5-[4-Chloro-3-(3-chloro-phenoxy)-benzyl]-4-ethyl-2,4-dihydro-[1,2,4]triazol-3-one]", "values": [{"measurement": "pIC50", "result": 6.35}]}, {"compound": "Cn1c(Cc2ccc(Cl)c(Oc3cccc(Cl)c3)c2)n[nH]c1=O", "note": "[Compound 8, 5-[4-Chloro-3-(3-chloro-phenoxy)-benzyl]-4-methyl-2,4-dihydro-[1,2,4]triazol-3-one]", "values": [{"measurement": "pIC50", "result": 6.54}]}, {"compound": "O=c1[nH]nc(Cc2ccc(Cl)c(Oc3ccccc3Cl)c2)s1", "note": "[Compound 4, 5-[4-Chloro-3-(2-chloro-phenoxy)-benzyl]-3H-[1,3,4]thiadiazol-2-one]", "values": [{"measurement": "pIC50", "result": 6.71}]}, {"compound": "CCn1c(Cc2ccc(Cl)c(Oc3ccccc3Cl)c2)n[nH]c1=O", "note": "[Compound 7, 5-[4-Chloro-3-(2-chloro-phenoxy)-benzyl]-4-ethyl-2,4-dihydro-[1,2,4]triazol-3-one]", "values": [{"measurement": "pIC50", "result": 6.35}]}]}
